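Where inhibition never reached the appropriate level, the endpoint shown equals the highest concentration tested. Otherwise, values were interpolated linearly from a five-concentration, 48-hour dose response in 96-well plates. TGI: concentration producing complete growth inhibition.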
Columns and labels:
Experiment in all cases: DTP human tumour cell line panel, 48 h
SR leukemia = test system: SR leukemia
RPMI-8226 leukemia = test system: RPMI-8226 leukemia
A498 renal = test system: A498 renal
EKVX NSCLC = test system: EKVX NSCLC
UACC-62 melanoma = test system: UACC-62 melanoma
MCF7 breast = test system: MCF7 breast
IGROV1 ovarian = test system: IGROV1 ovarian
NCI-H522 lung = test system: NCI-H522 lung
K-562 leukemia = test system: K-562 leukemia
SF-539 CNS = test system: SF-539 CNS
OVCAR-8 ovarian = test system: OVCAR-8 ovarian
HCT-116 colon = test system: HCT-116 colon
786-0 renal = test system: 786-0 renal
SF-295 CNS = test system: SF-295 CNS
ACHN renal = test system: ACHN renal
UO-31 renal = test system: UO-31 renal
KM12 colon = test system: KM12 colon
NCI-H23 lung = test system: NCI-H23 lung
NCI-H226 lung = test system: NCI-H226 lung
NCI-H460 lung = test system: NCI-H460 lung

Row | Compound | TGI (SR leukemia) | TGI (RPMI-8226 leukemia) | TGI (A498 renal) | TGI (EKVX NSCLC) | TGI (UACC-62 melanoma) | TGI (MCF7 breast) | TGI (IGROV1 ovarian) | TGI (NCI-H522 lung) | TGI (K-562 leukemia) | TGI (SF-539 CNS) | TGI (OVCAR-8 ovarian) | TGI (HCT-116 colon) | TGI (786-0 renal) | TGI (SF-295 CNS) | TGI (ACHN renal) | TGI (UO-31 renal) | TGI (KM12 colon) | TGI (NCI-H23 lung) | TGI (NCI-H226 lung) | TGI (NCI-H460 lung)
1 | CC(=O)N(CCc1ccccc1)C(C#N)c1ccccc1 (stereo unspecified) | > 100 µM | > 100 µM | > 100 µM | > 100 µM | > 100 µM | > 100 µM | > 100 µM | > 100 µM | > 100 µM | > 100 µM | > 100 µM | > 100 µM | > 100 µM | > 100 µM | > 100 µM | > 100 µM | > 100 µM | > 100 µM | > 100 µM | –
2 | Cc1cc(C)c2c(c1)C/C(=C\c1ccccc1C(=O)O)C2=O | > 100 µM | > 100 µM | > 100 µM | > 100 µM | – | > 100 µM | > 100 µM | > 100 µM | > 100 µM | > 100 µM | > 100 µM | > 100 µM | > 100 µM | > 100 µM | > 100 µM | > 100 µM | > 100 µM | > 100 µM | > 100 µM | 26.4 µM
3 | COC(=O)[C@H](Cc1c[nH]c2ccccc12)NC(=O)c1ccc(CNC(=O)/C(C)=C/c2ccccc2)cc1 | > 100 µM | > 100 µM | 64.2 µM | > 100 µM | 41.7 µM | > 100 µM | > 100 µM | 62.8 µM | > 100 µM | > 100 µM | > 100 µM | > 100 µM | > 100 µM | > 100 µM | > 100 µM | > 100 µM | > 100 µM | > 100 µM | > 100 µM | > 100 µM
4 | CC(=O)Oc1ccc2c(c1)c1c(=O)oc(C)nc1n2Cc1ccccc1 | > 100 µM | > 100 µM | > 74.6 µM | > 100 µM | > 31.6 µM | > 100 µM | > 100 µM | 60.5 µM | > 100 µM | > 100 µM | > 100 µM | > 100 µM | > 100 µM | > 100 µM | > 100 µM | 13.8 µM | > 100 µM | > 100 µM | > 69.7 µM | > 100 µM
5 | O=C1C=CC(=O)c2c1ccc1c3ccccc3n(-c3cccc([N+](=O)[O-])c3)c21 | 0.961 µM | 3.9 µM | > 10 µM | > 9.51 µM | > 3.16 µM | > 5.93 µM | > 10 µM | 3.57 µM | 1.45 µM | > 6.82 µM | > 8.25 µM | 3.91 µM | 3.58 µM | > 10 µM | 3.36 µM | > 10 µM | > 10 µM | 6.57 µM | > 10 µM | > 10 µM
6 | CC(C)(C)OC(=O)NC(Cc1ccc(OC(C)(C)C)cc1)C(=O)N[C@H]1CCC[C@H]1C(=O)NC(Cc1ccccc1)C(=O)N1CCCC1C(N)=O (stereo partly specified) | > 100 µM | > 100 µM | > 100 µM | > 100 µM | > 100 µM | > 100 µM | > 100 µM | > 100 µM | > 100 µM | > 100 µM | > 100 µM | > 100 µM | > 100 µM | > 100 µM | > 100 µM | > 100 µM | > 100 µM | > 100 µM | > 100 µM | > 100 µM
7 | Nc1nc(Cl)c(N)c(NCC2(CO)CCCC2)n1 | > 100 µM | > 100 µM | > 100 µM | > 100 µM | 7.44 µM | > 100 µM | > 100 µM | > 100 µM | > 100 µM | > 100 µM | > 100 µM | > 100 µM | > 100 µM | > 100 µM | > 100 µM | > 100 µM | > 100 µM | – | > 100 µM | > 100 µM
8 | O=C(/C=C/c1ccc(OCc2cccc(Cl)c2)cc1)NO | 11.3 µM | 44.8 µM | 27.8 µM | > 100 µM | 27.9 µM | > 100 µM | 38 µM | 49.4 µM | > 100 µM | > 100 µM | 20.3 µM | 25.8 µM | 23.9 µM | 50.1 µM | 23.5 µM | 18.7 µM | 43 µM | 26 µM | 35.6 µM | 41.9 µM
9 | C=C(C(=O)O)[C@@H]1C[C@@H](OC(C)=O)[C@]2(C)CC/C=C(\C)CCC[C@H](C)[C@H](O)[C@@H]1O2 | 65.1 µM | > 100 µM | > 100 µM | > 100 µM | > 100 µM | > 100 µM | > 100 µM | 48.4 µM | > 100 µM | 35.7 µM | > 100 µM | > 100 µM | > 100 µM | > 100 µM | > 100 µM | – | > 100 µM | – | > 100 µM | > 100 µM
10 | O=C(CCc1cc(O)ccc1O)OCCc1ccccc1 | > 100 µM | > 23.2 µM | > 100 µM | 61.9 µM | 33.9 µM | 57.3 µM | 22.3 µM | 1.78 µM | 30.9 µM | 14.9 µM | > 57.6 µM | 27.3 µM | 24.5 µM | > 100 µM | 18.4 µM | 18.7 µM | > 80.6 µM | > 90.8 µM | > 76.3 µM | > 100 µM
11 | [N-]=[N+]=Nc1cc(=O)n2c3c(cccc13)CCC2 | > 100 µM | > 100 µM | > 100 µM | > 100 µM | > 100 µM | > 100 µM | > 100 µM | > 100 µM | > 100 µM | > 100 µM | > 100 µM | > 100 µM | > 100 µM | > 100 µM | > 100 µM | > 100 µM | > 100 µM | > 100 µM | > 100 µM | > 100 µM
12 | O=C(NCCCl)N(O)C(=O)Nc1ccccc1 | > 100 µM | > 100 µM | > 100 µM | > 100 µM | > 100 µM | > 100 µM | > 100 µM | > 100 µM | > 100 µM | > 100 µM | > 100 µM | > 100 µM | > 100 µM | > 100 µM | > 100 µM | > 100 µM | > 100 µM | > 100 µM | > 100 µM | > 100 µM
13 | O=C(Oc1cccnc1)c1cc2cc(CCl)ccc2oc1=O | 73.6 µM | 66 µM | > 100 µM | 52.1 µM | 36.9 µM | 11.3 µM | 66.3 µM | 35.5 µM | 40.6 µM | > 100 µM | > 100 µM | 38.7 µM | 36.1 µM | > 100 µM | > 100 µM | 44.5 µM | > 100 µM | 39.5 µM | > 100 µM | > 100 µM
14 | O=C1c2cccc3cccc(c23)C(=O)N1CCCNCCCNCCCCNCCCNCCCN1C(=O)c2cccc3cccc(c23)C1=O | > 31.8 µM | > 34 µM | 25.2 µM | 22 µM | 12.3 µM | 1.61 µM | 24.5 µM | 32.6 µM | 16.5 µM | 23.7 µM | 40 µM | 8.17 µM | 6.12 µM | 24.4 µM | 15.3 µM | 30.4 µM | 13.9 µM | 16 µM | 28.6 µM | 14.1 µM
15 | CC(C)N(C(=O)C1(O)c2ccccc2C=Cc2ccccc21)C(C)C | 63 µM | > 100 µM | 29.8 µM | 32.5 µM | 29.5 µM | 31 µM | 28.8 µM | 25.3 µM | – | 33.4 µM | 30.5 µM | 32.8 µM | 38.8 µM | 33.7 µM | 29.5 µM | 40.1 µM | 49.7 µM | 34.2 µM | 35.8 µM | –
16 | Cc1ccc(-c2n[nH]c(=O)n2/N=C\c2ccc([N+](=O)[O-])cc2)cc1 | > 100 µM | > 100 µM | > 100 µM | > 100 µM | > 100 µM | > 100 µM | > 100 µM | > 100 µM | > 94.2 µM | > 100 µM | > 100 µM | > 100 µM | > 100 µM | > 100 µM | > 100 µM | > 100 µM | > 100 µM | > 100 µM | > 100 µM | > 100 µM
17 | CCC(=O)O[C@H]1CC[C@H]2[C@@H]3CCC4=C/C(=N/OC(=O)c5cccc6c(=O)c7ccccc7[nH]c56)CC[C@]4(C)[C@H]3CC[C@]12C | > 100 µM | 54.7 µM | 77.7 µM | > 100 µM | > 100 µM | 48.2 µM | 77.6 µM | 56.1 µM | 47 µM | 39.3 µM | > 100 µM | – | 36.5 µM | > 100 µM | > 100 µM | 62.2 µM | 55.1 µM | > 100 µM | > 100 µM | 54.5 µM
18 | O=S1(=O)Cc2ccc3c4c2-c2c(ccc5ccc(c-4c25)CS(=O)(=O)C3)C1 | 69 µM | > 100 µM | > 100 µM | > 100 µM | > 100 µM | > 100 µM | > 100 µM | > 100 µM | > 100 µM | > 100 µM | > 100 µM | > 100 µM | > 100 µM | > 100 µM | > 100 µM | > 100 µM | > 100 µM | – | > 100 µM | > 100 µM

Source: PubChem BioAssay (NCI)
